Results published in patent US20230348376A1 (TEIJIN PHARMA LIMITED, priority 2020, published 2023).

Target: T1, human VDR (Homo sapiens, UniProt P11473)
T1 sequence (P11473 1-427): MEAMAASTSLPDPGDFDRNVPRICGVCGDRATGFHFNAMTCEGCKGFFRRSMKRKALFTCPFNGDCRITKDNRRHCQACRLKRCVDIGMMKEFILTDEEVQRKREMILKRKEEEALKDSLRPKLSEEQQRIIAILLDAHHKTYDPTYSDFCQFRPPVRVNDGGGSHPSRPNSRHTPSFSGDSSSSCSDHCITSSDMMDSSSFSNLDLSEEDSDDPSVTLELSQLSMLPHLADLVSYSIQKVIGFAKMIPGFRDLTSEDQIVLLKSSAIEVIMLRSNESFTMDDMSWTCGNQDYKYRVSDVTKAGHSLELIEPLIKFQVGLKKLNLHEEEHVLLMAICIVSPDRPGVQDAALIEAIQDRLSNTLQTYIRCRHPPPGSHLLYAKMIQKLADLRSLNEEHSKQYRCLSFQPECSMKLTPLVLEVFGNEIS
T1 sequence (P19793 1-462 partner): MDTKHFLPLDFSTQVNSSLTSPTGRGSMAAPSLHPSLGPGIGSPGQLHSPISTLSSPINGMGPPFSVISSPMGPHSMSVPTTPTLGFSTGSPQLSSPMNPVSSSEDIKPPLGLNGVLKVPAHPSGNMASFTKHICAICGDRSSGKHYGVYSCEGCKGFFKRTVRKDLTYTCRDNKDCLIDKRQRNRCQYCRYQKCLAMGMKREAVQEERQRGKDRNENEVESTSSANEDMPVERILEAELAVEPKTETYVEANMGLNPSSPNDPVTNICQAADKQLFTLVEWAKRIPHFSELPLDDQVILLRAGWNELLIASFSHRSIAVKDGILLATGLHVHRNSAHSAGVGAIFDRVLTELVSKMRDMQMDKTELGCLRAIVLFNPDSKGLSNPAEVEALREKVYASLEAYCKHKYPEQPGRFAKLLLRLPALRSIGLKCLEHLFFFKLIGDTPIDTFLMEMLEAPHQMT
Assay: Evaluation of VDR transcription activity in human osteoblasts (HOS cells), luciferase reporter
Details: Activity (EC50, VDR transcription activity), HOS cells transfected with human VDR, human RXRα and DR3 luciferase reporter; 21 hours

Row | SMILES | EC50 [nM]
1 | C=C1/C(=C\C=C2/CCC[C@]3(C)[C@@H]([C@H](C)CN4CCC(C(F)F)CC4)CC[C@@H]23)C[C@@H](O)[C@H](C)[C@@H]1O [Compound C016, (1R,2S,3S,Z)-5-(2-((1R,3aS,7aR,E)-1-((S)-1-(4-(difluoromethyl)piperidin-1-yl)propan-2-yl)-7a-methyloctahydro-4H-inden-4-ylidene)ethylidene)-2-methyl-4-methylenecyclohexane-1,3-diol] | 100 to 1000
2 | C=C1/C(=C\C=C2/CCC[C@]3(C)[C@@H]([C@@H](C)CN4CCC(C(F)F)CC4)CC[C@@H]23)C[C@@H](O)C[C@@H]1O [Compound C017, (1R,3S,Z)-5-(2-((1R,3aS,7aR,E)-1-((R)-1-(4-(difluoromethyl)piperidin-1-yl)propan-2-yl)-7a-methyloctahydro-4H-inden-4-ylidene)ethylidene)-4-methylenecyclohexane-1,3-diol] | 10 to 100
3 | C[C@@H](CN1CCC(C(F)F)CC1)[C@H]1CC[C@H]2/C(=C/C=C3C[C@@H](O)C[C@H](O)C3)CCC[C@]12C [Compound C018, (1R,3R)-5-(2-((1R,3aS,7aR,E)-1-((R)-1-(4-(difluoromethyl)piperidin-1-yl)propan-2-yl)-7a-methyloctahydro-4H-inden-4-ylidene)ethylidene)cyclohexane-1,3-diol] | 10 to 100
4 | C=C1/C(=C\C=C2/CCC[C@]3(C)[C@@H]([C@@H](C)CN4CCC(C(F)F)CC4)CC[C@@H]23)C[C@@H](O)[C@H](C)[C@@H]1O [Compound C020, (1R,2S,3S,Z)-5-(2-((1R,3aS,7aR,E)-1-((R)-1-(4-(difluoromethyl)piperidin-1-yl)propan-2-yl)-7a-methyloctahydro-4H-inden-4-ylidene)ethylidene)-2-methyl-4-methylenecyclohexane-1,3-diol] | 1 to 10
5 | C=C1/C(=C\C=C2/CCC[C@]3(C)[C@@H]([C@H](C)CN4CCC(O)(C(F)F)CC4)CC[C@@H]23)C[C@@H](O)C[C@@H]1O [Compound C021, (1R,3S,Z)-5-(2-((1R,3aS,7aR,E)-1-((S)-1-(4-(difluoromethyl)-4-hydroxypiperidin-1-yl)propan-2-yl)-7a-methyloctahydro-4H-inden-4-ylidene)ethylidene)-4-methylenecyclohexane-1,3-diol] | 100 to 1000
6 | C=C1[C@H](O)CC(=C/C=C2\CCC[C@]3(C)[C@@H]([C@H](C)CN4CCC(O)(C(F)F)CC4)CC[C@@H]23)C[C@H]1O [Compound C022, (1R,3R)-5-(2-((1R,3aS,7aR,E)-1-((S)-1-(4-(difluoromethyl)-4-hydroxypiperidin-1-yl)propan-2-yl)-7a-methyloctahydro-4H-inden-4-ylidene)ethylidene)-2-methylenecyclohexane-1,3-diol] | 10 to 100
7 | C=C1/C(=C\C=C2/CCC[C@]3(C)[C@@H]([C@H](C)CN4CCC(O)(C(F)F)CC4)CC[C@@H]23)C[C@@H](O)[C@H](C)[C@@H]1O [Compound C023, (1R,2S,3S,Z)-5-(2-((1R,3aS,7aR,E)-1-((S)-1-(4-(difluoromethyl)-4-hydroxypiperidin-1-yl)propan-2-yl)-7a-methyloctahydro-4H-inden-4-ylidene)ethylidene)-2-methyl-4-methylenecyclohexane-1,3-diol] | 1 to 10
8 | C=C1/C(=C\C=C2/CCC[C@]3(C)[C@@H]([C@@H](C)CN4CCC(O)(C(F)F)CC4)CC[C@@H]23)C[C@@H](O)C[C@@H]1O [Compound C024, (1R,3S,Z)-5-(2-((1R,3aS,7aR,E)-1-((R)-1-(4-(difluoromethyl)-4-hydroxypiperidin-1-yl)propan-2-yl)-7a-methyloctahydro-4H-inden-4-ylidene)ethylidene)-4-methylenecyclohexane-1,3-diol] | 1 to 10
9 | C[C@@H](CN1CCC(O)(C(F)F)CC1)[C@H]1CC[C@H]2/C(=C/C=C3C[C@@H](O)C[C@H](O)C3)CCC[C@]12C [Compound C025, (1R,3R)-5-(2-((1R,3aS,7aR,E)-1-((R)-1-(4-(difluoromethyl)-4-hydroxypiperidin-1-yl)propan-2-yl)-7a-methyloctahydro-4H-inden-4-ylidene)ethylidene)cyclohexane-1,3-diol] | 10 to 100
10 | C=C1[C@H](O)CC(=C/C=C2\CCC[C@]3(C)[C@@H]([C@@H](C)CN4CCC(O)(C(F)F)CC4)CC[C@@H]23)C[C@H]1O [Compound C026, (1R,3R)-5-(2-((1R,3aS,7aR,E)-1-((R)-1-(4-(difluoromethyl)-4-hydroxypiperidin-1-yl)propan-2-yl)-7a-methyloctahydro-4H-inden-4-ylidene)ethylidene)-2-methylenecyclohexane-1,3-diol] | 1 to 10
11 | C=C1/C(=C\C=C2/CCC[C@]3(C)[C@@H]([C@@H](C)CN4CCC(C)(O)CC4)CC[C@@H]23)C[C@@H](O)C[C@@H]1O [Compound C029, (1R,3S,Z)-5-(2-((1R,3aS,7aR,E)-1-((R)-1-(4-hydroxy-4-methylpiperidin-1-yl)propan-2-yl)-7a-methyloctahydro-4H-inden-4-ylidene)ethylidene)-4-methylenecyclohexane-1,3-diol] | 100 to 1000
12 | C=C1[C@H](O)CC(=C/C=C2\CCC[C@]3(C)[C@@H]([C@H](C)CN4CCC[C@@](C)(O)C4)CC[C@@H]23)C[C@H]1O [Compound C040, (1R,3R)-5-(2-((1R,3aS,7aR,E)-1-((S)-1-((R)-3-hydroxy-3-methylpiperidin-1-yl)propan-2-yl)-7a-methyloctahydro-4H-inden-4-ylidene)ethylidene)-2-methylenecyclohexane-1,3-diol] | 10 to 100
13 | C=C1[C@H](O)CC(=C/C=C2\CCC[C@]3(C)[C@@H]([C@H](C)CN4CCC[C@](C)(O)C4)CC[C@@H]23)C[C@H]1O [Compound C041, (1R,3R)-5-(2-((1R,3aS,7aR,E)-1-((S)-1-((S)-3-hydroxy-3-methylpiperidin-1-yl)propan-2-yl)-7a-methyloctahydro-4H-inden-4-ylidene)ethylidene)-2-methylenecyclohexane-1,3-diol] | < 1
14 | C=C1/C(=C\C=C2/CCC[C@]3(C)[C@@H]([C@H](C)CN4CCC[C@H](C(F)F)C4)CC[C@@H]23)C[C@@H](O)C[C@@H]1O [Compound C048, (1R,3S,Z)-5-(2-((1R,3aS,7aR,E)-1-((S)-1-((S)-3-(difluoromethyl)piperidin-1-yl)propan-2-yl)-7a-methyloctahydro-4H-inden-4-ylidene)ethylidene)-4-methylenecyclohexane-1,3-diol] | 10 to 100
15 | C=C1[C@H](O)CC(=C/C=C2\CCC[C@]3(C)[C@@H]([C@H](C)CN4CCC[C@H](C(F)F)C4)CC[C@@H]23)C[C@H]1O [Compound C049, (1R,3R)-5-(2-((1R,3aS,7aR,E)-1-((S)-1-((S)-3-(difluoromethyl)piperidin-1-yl)propan-2-yl)-7a-methyloctahydro-4H-inden-4-ylidene)ethylidene)-2-methylenecyclohexane-1,3-diol] | 1 to 10
16 | C=C1/C(=C\C=C2/CCC[C@]3(C)[C@@H]([C@H](C)CN4CCC[C@H](C(F)F)C4)CC[C@@H]23)C[C@@H](O)[C@H](C)[C@@H]1O [Compound C050, (1R,2S,3 S,Z)-5-(2-((1R,3aS,7aR,E)-1-((S)-1-((S)-3-(difluoromethyl)piperidin-1-yl)propan-2-yl)-7a-methyloctahydro-4H-inden-4-ylidene)ethylidene)-2-methyl-4-methylenecyclohexane-1,3-diol] | 1 to 10
17 | C[C@H](CN1CCC[C@H](CC(F)F)C1)[C@H]1CC[C@H]2/C(=C/C=C3C[C@@H](O)C[C@H](O)C3)CCC[C@]12C [Compound C051, (1R,3R)-5-(2-((1R,3aS,7aR,E)-1-((S)-1-((R)-3-(2,2-difluoroethyl)piperidin-1-yl)propan-2-yl)-7a-methyloctahydro-4H-inden-4-ylidene)ethylidene)cyclohexane-1,3-diol] | 100 to 1000
18 | C=C1[C@H](O)CC(=C/C=C2\CCC[C@]3(C)[C@@H]([C@H](C)CN4CCC[C@H](C(C)(F)F)C4)CC[C@@H]23)C[C@H]1O [Compound C053, (1R,3R)-5-(2-((1R,3aS,7aR,E)-1-((S)-1-((S)-3-(1,1-difluoroethyl)piperidin-1-yl)propan-2-yl)-7a-methyloctahydro-4H-inden-4-ylidene)ethylidene)-2-methylenecyclohexane-1,3-diol] | 1 to 10
19 | C=C1[C@H](O)CC(=C/C=C2\CCC[C@]3(C)[C@@H]([C@@H](C)CN4CCC(CC(F)F)CC4)CC[C@@H]23)C[C@H]1O [Compound C056, (1R,3R)-5-(2-((1R,3aS,7aR,E)-1-((R)-1-(4-(2,2-difluoroethyl)piperidin-1-yl)propan-2-yl)-7a-methyloctahydro-4H-inden-4-ylidene)ethylidene)-2-methylenecyclohexane-1,3-diol] | 10 to 100
